Results taken from ChEMBL document CHEMBL5291721, “A preclinical secondary pharmacology resource illuminates target-adverse drug reaction associations of marketed drugs” (Nat Commun, 2023).

Legend:
[1] = target: Voltage-dependent L-type calcium channel subunit alpha-1C (Rattus norvegicus, UniProt P22002); format: functional
[2] = target: T1, Alpha-2A adrenergic receptor (Homo sapiens, UniProt P08913); format: functional, cell-based
T1 sequence (P08913 whole entry): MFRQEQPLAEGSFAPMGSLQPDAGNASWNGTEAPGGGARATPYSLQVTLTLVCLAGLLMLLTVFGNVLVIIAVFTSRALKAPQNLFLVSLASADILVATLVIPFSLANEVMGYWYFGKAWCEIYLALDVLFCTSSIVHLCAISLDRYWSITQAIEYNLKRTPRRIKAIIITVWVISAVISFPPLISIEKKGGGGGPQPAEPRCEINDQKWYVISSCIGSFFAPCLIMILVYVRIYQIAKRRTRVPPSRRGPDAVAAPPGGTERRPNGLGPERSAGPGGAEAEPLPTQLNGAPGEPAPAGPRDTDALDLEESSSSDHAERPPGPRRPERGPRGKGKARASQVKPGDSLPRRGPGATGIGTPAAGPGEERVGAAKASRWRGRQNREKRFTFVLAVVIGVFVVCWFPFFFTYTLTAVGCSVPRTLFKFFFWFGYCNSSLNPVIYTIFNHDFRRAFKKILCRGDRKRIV

[3] = target: Neuronal acetylcholine receptor subunit alpha-4 (Homo sapiens, UniProt P43681)
[4] = target: T2, Beta-2 adrenergic receptor (Homo sapiens, UniProt P07550); format: functional, cell-based
[5] = target: T3, Alpha-1A adrenergic receptor (Homo sapiens, UniProt P35348); format: functional, cell-based
T3 sequence (P35348 whole entry): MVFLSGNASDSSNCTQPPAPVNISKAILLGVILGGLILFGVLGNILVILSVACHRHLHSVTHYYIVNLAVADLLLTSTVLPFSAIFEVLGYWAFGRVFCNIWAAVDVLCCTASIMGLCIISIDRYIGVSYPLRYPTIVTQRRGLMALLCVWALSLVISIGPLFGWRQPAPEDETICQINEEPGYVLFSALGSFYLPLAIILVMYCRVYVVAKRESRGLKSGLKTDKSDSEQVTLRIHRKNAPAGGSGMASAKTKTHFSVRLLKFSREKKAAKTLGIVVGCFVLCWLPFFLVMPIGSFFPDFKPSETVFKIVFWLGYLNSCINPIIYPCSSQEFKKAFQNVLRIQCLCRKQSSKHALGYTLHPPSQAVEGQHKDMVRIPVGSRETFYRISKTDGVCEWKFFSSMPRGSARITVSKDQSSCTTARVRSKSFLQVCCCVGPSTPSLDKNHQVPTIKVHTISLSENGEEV

[6] = target: Sodium-dependent dopamine transporter (Homo sapiens, UniProt Q01959)
[7] = target: Cannabinoid receptor 1 (Homo sapiens, UniProt P21554); format: functional, cell-based
[8] = target: T4, Gamma-aminobutyric acid receptor subunit alpha-1 (Rattus norvegicus, UniProt P62813)
[9] = target: T1, Alpha-2A adrenergic receptor; format: functional, cell-based; remark: listed apart in the source
[10] = target: T5, Muscarinic acetylcholine receptor M2 (Homo sapiens, UniProt P08172); format: functional, cell-based
T5 sequence (P08172 whole entry): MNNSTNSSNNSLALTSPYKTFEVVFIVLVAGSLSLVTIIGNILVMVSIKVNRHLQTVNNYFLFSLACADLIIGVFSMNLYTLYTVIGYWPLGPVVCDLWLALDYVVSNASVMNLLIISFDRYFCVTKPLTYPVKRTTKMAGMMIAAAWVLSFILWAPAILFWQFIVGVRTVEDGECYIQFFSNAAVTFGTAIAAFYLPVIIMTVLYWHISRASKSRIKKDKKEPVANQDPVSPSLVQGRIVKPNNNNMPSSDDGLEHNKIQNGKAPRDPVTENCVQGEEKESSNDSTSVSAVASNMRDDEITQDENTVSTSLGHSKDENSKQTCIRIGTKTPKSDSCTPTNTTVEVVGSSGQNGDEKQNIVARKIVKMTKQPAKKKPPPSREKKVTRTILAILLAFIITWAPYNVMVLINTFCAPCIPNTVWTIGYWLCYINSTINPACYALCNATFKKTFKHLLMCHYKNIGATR

[11] = target: T2, Beta-2 adrenergic receptor
[12] = target: T3, Alpha-1A adrenergic receptor; format: functional, cell-based; remark: listed apart in the source
[13] = target: T6, Equilibrative nucleoside transporter 1 (Homo sapiens, UniProt Q99808)
T6 sequence (Q99808 whole entry): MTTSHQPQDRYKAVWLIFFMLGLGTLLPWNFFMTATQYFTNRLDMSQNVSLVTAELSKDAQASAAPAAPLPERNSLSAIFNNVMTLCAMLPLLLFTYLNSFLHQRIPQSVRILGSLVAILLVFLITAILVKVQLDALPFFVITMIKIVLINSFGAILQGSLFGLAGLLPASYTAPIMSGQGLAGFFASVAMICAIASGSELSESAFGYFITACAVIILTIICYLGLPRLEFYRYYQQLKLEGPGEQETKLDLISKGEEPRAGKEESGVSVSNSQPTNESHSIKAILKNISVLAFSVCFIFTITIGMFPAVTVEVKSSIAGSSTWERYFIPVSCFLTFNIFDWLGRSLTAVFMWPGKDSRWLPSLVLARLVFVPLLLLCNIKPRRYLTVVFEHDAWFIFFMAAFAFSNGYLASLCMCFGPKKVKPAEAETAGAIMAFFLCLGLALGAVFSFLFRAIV

[14] = target: Prostaglandin G/H synthase 1 (Homo sapiens, UniProt P23219); format: functional
[15] = target: Sodium-dependent noradrenaline transporter (Homo sapiens, UniProt P23975)
[16] = target: Vascular endothelial growth factor receptor 2 (Homo sapiens, UniProt P35968); format: functional
[17] = target: T4, Gamma-aminobutyric acid receptor subunit alpha-1; remark: listed apart in the source
[18] = target: D(3) dopamine receptor (Homo sapiens, UniProt P35462)
Note: assay procedure not described here.

Chain of Cannabinoid receptor 1 (P21554 whole entry): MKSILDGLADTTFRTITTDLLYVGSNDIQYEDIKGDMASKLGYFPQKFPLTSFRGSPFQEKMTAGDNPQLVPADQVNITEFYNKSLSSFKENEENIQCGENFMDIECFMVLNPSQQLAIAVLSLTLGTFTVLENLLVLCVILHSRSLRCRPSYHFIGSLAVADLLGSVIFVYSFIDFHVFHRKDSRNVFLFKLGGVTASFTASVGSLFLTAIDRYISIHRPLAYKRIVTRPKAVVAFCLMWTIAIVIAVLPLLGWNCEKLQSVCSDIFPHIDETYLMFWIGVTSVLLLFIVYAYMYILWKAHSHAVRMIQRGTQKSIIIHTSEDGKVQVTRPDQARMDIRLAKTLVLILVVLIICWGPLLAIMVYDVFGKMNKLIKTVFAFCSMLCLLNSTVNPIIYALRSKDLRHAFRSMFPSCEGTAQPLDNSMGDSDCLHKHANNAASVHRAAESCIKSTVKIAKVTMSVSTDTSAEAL
Chain of Neuronal acetylcholine receptor subunit alpha-4 (P43681 whole entry): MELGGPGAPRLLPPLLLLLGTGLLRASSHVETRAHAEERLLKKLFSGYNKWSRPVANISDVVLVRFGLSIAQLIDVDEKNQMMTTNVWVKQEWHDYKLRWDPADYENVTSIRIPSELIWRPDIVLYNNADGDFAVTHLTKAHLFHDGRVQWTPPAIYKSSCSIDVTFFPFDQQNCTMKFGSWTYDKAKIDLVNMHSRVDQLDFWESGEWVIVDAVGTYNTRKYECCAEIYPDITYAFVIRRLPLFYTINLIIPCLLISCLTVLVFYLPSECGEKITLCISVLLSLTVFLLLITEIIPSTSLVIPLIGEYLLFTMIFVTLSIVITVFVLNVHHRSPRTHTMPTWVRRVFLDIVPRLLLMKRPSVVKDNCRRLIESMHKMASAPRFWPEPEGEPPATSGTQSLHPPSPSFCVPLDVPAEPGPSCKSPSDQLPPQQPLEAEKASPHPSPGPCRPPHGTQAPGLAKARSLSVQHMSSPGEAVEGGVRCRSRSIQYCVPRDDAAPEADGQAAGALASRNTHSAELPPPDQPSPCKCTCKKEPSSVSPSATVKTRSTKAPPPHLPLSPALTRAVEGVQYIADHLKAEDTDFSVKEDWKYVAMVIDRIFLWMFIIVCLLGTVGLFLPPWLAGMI
Chain of Voltage-dependent L-type calcium channel subunit alpha-1C (P22002 whole entry): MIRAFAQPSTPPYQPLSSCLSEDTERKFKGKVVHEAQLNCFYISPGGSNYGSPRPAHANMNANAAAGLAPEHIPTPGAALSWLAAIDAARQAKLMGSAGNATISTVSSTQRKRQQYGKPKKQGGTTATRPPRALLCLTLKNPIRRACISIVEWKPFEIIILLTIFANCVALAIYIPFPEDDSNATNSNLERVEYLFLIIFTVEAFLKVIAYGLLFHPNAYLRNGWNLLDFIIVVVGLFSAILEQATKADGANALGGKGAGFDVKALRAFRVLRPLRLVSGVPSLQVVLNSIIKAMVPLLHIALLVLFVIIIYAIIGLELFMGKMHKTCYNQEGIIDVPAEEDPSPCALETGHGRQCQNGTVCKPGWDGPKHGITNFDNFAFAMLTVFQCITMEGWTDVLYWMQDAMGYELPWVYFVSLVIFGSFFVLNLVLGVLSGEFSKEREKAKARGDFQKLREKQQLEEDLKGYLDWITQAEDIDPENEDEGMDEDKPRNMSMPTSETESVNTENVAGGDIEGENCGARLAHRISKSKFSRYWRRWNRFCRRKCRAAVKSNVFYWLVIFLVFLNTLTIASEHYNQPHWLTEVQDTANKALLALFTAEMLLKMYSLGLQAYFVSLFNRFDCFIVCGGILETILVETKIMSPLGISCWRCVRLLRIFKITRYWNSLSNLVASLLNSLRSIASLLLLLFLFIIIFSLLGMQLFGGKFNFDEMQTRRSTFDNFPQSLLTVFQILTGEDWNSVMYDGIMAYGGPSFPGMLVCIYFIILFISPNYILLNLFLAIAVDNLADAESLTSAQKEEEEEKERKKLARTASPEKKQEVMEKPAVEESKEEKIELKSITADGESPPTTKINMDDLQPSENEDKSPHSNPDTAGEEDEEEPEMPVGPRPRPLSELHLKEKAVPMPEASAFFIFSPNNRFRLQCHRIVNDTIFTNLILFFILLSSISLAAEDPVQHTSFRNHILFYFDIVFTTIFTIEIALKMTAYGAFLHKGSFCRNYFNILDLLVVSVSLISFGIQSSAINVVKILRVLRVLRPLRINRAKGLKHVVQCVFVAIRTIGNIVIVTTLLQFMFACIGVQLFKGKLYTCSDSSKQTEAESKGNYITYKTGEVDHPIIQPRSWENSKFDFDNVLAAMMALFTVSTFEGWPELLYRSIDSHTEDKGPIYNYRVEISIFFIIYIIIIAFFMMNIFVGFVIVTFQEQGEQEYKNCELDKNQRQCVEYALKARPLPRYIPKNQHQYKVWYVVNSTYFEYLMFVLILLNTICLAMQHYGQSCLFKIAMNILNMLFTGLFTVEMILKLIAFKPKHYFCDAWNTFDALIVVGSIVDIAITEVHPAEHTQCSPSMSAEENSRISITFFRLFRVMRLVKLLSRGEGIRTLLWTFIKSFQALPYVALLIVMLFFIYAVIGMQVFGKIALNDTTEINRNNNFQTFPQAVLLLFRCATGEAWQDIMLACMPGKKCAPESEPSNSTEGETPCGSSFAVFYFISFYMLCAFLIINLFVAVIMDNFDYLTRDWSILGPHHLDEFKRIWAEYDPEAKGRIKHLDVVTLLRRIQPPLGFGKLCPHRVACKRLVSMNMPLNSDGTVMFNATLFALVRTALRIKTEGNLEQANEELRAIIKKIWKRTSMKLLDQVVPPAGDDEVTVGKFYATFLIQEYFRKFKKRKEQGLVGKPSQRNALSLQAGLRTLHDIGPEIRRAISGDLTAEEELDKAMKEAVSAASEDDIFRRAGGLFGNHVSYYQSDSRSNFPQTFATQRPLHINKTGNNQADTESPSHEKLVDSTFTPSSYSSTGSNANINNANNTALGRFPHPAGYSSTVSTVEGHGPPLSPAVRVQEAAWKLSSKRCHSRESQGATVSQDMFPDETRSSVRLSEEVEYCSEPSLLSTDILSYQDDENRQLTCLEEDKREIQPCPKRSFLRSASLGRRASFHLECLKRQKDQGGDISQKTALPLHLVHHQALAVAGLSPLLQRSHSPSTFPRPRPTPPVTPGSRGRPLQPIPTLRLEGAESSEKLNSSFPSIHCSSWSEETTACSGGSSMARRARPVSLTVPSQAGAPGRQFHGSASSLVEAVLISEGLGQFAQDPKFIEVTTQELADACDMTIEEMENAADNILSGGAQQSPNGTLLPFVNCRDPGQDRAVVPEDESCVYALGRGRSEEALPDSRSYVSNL
T4 sequence (P62813 whole entry): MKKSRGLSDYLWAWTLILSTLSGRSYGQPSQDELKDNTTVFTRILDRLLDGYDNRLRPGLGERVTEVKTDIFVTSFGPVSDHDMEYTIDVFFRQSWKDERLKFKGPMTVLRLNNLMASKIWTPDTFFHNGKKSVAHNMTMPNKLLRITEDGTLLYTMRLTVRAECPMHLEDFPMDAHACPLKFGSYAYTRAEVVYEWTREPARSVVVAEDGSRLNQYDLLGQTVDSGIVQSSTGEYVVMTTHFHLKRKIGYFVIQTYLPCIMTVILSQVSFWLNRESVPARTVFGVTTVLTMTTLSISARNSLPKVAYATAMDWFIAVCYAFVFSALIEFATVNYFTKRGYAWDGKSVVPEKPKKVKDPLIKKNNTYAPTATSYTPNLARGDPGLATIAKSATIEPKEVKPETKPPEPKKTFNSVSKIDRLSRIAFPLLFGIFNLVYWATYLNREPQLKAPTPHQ
Chain of Sodium-dependent dopamine transporter (Q01959 whole entry): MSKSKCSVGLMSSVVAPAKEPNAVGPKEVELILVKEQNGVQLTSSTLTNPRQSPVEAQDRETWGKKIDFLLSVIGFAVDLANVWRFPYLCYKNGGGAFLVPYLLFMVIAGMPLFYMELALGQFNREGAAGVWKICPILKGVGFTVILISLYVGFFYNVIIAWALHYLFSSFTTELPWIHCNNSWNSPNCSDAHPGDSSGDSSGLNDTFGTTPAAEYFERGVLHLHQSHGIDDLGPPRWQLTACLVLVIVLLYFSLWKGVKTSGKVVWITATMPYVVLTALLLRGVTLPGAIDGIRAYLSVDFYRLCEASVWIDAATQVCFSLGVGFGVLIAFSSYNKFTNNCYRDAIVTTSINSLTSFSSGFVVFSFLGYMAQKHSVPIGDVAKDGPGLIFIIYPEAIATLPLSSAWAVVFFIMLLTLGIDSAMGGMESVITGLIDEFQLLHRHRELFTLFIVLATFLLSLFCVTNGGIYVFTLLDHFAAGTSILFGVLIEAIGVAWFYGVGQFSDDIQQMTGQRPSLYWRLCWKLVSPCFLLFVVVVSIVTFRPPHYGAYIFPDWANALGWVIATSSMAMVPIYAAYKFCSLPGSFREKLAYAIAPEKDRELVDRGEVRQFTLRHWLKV
Chain of Sodium-dependent noradrenaline transporter (P23975 whole entry): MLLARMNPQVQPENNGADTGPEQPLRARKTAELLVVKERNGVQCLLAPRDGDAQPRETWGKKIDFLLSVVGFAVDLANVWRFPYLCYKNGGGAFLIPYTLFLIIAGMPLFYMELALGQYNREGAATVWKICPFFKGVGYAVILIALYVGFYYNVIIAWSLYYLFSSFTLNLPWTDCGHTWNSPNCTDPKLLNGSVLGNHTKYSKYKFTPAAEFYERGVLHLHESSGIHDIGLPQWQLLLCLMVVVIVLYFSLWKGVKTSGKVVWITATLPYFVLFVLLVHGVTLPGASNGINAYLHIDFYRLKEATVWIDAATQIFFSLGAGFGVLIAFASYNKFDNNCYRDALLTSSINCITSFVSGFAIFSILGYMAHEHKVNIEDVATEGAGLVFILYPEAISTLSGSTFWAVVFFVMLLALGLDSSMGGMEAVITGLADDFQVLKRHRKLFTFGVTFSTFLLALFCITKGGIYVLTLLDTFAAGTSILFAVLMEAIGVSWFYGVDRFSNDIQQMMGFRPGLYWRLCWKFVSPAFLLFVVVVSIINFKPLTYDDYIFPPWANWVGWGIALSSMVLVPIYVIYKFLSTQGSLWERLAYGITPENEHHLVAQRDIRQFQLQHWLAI

Row | Structure (SMILES) | AC50 [1] [µM] | AC50 [2] [µM] | AC50 [3] [µM] | AC50 [4] [µM] | AC50 [5] [µM] | AC50 [6] [µM] | AC50 [7] [µM] | AC50 [8] [µM] | AC50 [9] [µM] | AC50 [10] [µM] | AC50 [11] [µM] | AC50 [12] [µM] | AC50 [13] [µM] | AC50 [14] [µM] | AC50 [15] [µM] | AC50 [16] [µM] | AC50 [17] [µM] | AC50 [18] [µM]
1 | C[N+](C)(C)CCOP(=O)([O-])OC[C@H](O)CO | > 30 | > 30 | > 30 | > 30 | > 30 | > 30 | > 30 | > 30 | > 30 | > 30 | > 30 | > 30 | > 30 | – | – | – | – | –
2 | O=C(O)[C@@H]1C[C@@H](O)CN1 | – | – | – | – | – | – | – | – | – | – | – | – | – | > 30 | > 30 | > 30 | > 30 | –
3 | CCC1(c2ccc(N)cc2)CCC(=O)NC1=O (configuration not stated) [AMINOGLUTETHIMIDE] | – | > 30 | > 30 | > 30 | > 30 | > 30 | > 30 | > 30 | > 30 | > 30 | – | > 30 | > 30 | – | – | – | – | –
4 | O=C(/C=C/c1cccc(S(=O)(=O)Nc2ccccc2)c1)NO [BELINOSTAT] | > 10 | – | > 10 | – | – | > 10 | – | > 10 | – | – | > 10 | – | > 30 | 5.61 | > 30 | – | > 30 | > 30
5 | O=C(O)COCCN1CCN(C(c2ccccc2)c2ccc(Cl)cc2)CC1 (configuration not stated) [CETIRIZINE] | – | > 10 | > 10 | > 30 | > 30 | – | > 30 | – | > 10 | – | > 10 | > 30 | > 30 | – | – | > 30 | – | –
6 | Cc1cn([C@H]2O[C@@H](CO)[C@H](O)[C@H]2F)c(=O)[nH]c1=O [CLEVUDINE] | – | – | – | – | – | – | – | – | – | – | – | – | – | > 30 | > 30 | – | > 30 | > 30
7 | CC(=O)O[C@]1(C(C)=O)CC[C@H]2[C@@H]3C=C(Cl)C4=CC(=O)[C@@H]5C[C@@H]5[C@]4(C)[C@H]3CC[C@@]21C [CYPROTERONE ACETATE] | > 10 | – | > 10 | – | – | > 30 | – | > 10 | – | – | > 10 | – | > 30 | > 30 | > 30 | – | > 30 | > 30
8 | CC(=O)[C@H]1CC[C@H]2[C@@H]3C=CC4=CC(=O)CC[C@@]4(C)[C@@H]3CC[C@]12C [DYDROGESTERONE] | – | – | – | – | – | – | – | – | – | – | – | – | – | > 30 | > 30 | – | > 30 | > 30
9 | C[C@@H]1C[C@H]2[C@@H]3C[C@H](F)C4=CC(=O)C=C[C@]4(C)[C@@]3(F)[C@@H](O)C[C@]2(C)[C@@]1(OC(=O)c1ccco1)C(=O)SCF [FLUTICASONE FUROATE] | > 10 | > 10 | > 10 | – | > 30 | > 10 | > 30 | > 30 | > 10 | > 10 | > 10 | > 30 | > 10 | 27.7 | > 30 | – | > 30 | > 30
